# Laboratory results as given in ChEMBL document CHEMBL1201862, “PubChem BioAssay data set” (2004).
#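 Five concentrations, 48 hours, 96-well plates. Here, GI50 denotes the concentration required for 50% inhibition of growth.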 Active and inactive are the calls of the source. No stated cut-off is given here; in the data, active = GI50 up to about 1.1 µM and inactive = higher.
# Tests used:
# Test in all cases: NCI-60 cell line screen, 48 h
# ACHN = system: ACHN
# CAKI-1 = system: CAKI-1
# CCRF-CEM = system: CCRF-CEM
# COLO 205 = system: COLO 205
# DLD-1 = system: DLD-1
# DMS-114 = system: DMS-114
# DMS-273 = system: DMS-273
# EKVX = system: EKVX
# HCC 2998 = system: HCC 2998
# HCT-116 = system: HCT-116
# HCT-15 = system: HCT-15
# HL-60 = system: HL-60
# HOP-62 = system: HOP-62
# HOP-92 = system: HOP-92
# HT-29 = system: HT-29
# IGROV-1 = system: IGROV-1
# K562 = system: K562
# KM-20L2 = system: KM-20L2
# KM12 = system: KM12
# LOX IMVI = system: LOX IMVI
# LXFL 529 = system: LXFL 529
# M14 = system: M14
# M19-MEL = system: M19-MEL
# MOLT-4 = system: MOLT-4
# Malme-3M = system: Malme-3M
# NCI-H226 = system: NCI-H226
# NCI-H23 = system: NCI-H23
# NCI-H460 = system: NCI-H460
# NCI-H522 = system: NCI-H522
# OVCAR-3 = system: OVCAR-3
# OVCAR-4 = system: OVCAR-4
# OVCAR-5 = system: OVCAR-5
# OVCAR-8 = system: OVCAR-8
# RPMI-8226 = system: RPMI-8226
# RXF 393 = system: RXF 393
# SF-268 = system: SF-268
# SF-295 = system: SF-295
# SK-MEL-28 = system: SK-MEL-28
# SK-MEL-2 = system: SK-MEL-2
# SK-OV-3 = system: SK-OV-3
# SN12C = system: SN12C
# SNB-75 = system: SNB-75
# SW-620 = system: SW-620
# TK-10 = system: TK-10
# U-251 = system: U-251
# UACC-257 = system: UACC-257
# UACC-62 = system: UACC-62
# UO-31 = system: UO-31
# 786-0 = system: 786-0
# A498 = system: A498
# A549 = system: A549
# BT-549 = system: BT-549
# DU-145 = system: DU-145
# Hs-578T = system: Hs-578T
# MCF7 = system: MCF7
# MDA-MB-231 = system: MDA-MB-231
# MDA-MB-435 = system: MDA-MB-435
# MDA-N = system: MDA-N
# NCI/ADR-RES = system: NCI/ADR-RES
# PC-3 = system: PC-3
# SF-539 = system: SF-539
# SK-MEL-5 = system: SK-MEL-5
# SNB-19 = system: SNB-19
# SR = system: SR
# T47D = system: T47D
smiles,measurement,setting,value
O=C(O)C12CC3CC(C1)C2C=C3P(=O)(O)O (configuration not stated),GI50,ACHN,> 100 µM (inactive)
same,GI50,CAKI-1,> 100 µM (inactive)
same,GI50,CCRF-CEM,> 100 µM (inactive)
same,GI50,COLO 205,> 100 µM (inactive)
same,GI50,DLD-1,> 100 µM (inactive)
same,GI50,DMS-114,> 100 µM (inactive)
same,GI50,DMS-273,> 100 µM (inactive)
same,GI50,EKVX,> 100 µM (inactive)
same,GI50,HCC 2998,> 100 µM (inactive)
same,GI50,HCT-116,> 100 µM (inactive)
same,GI50,HCT-15,> 100 µM
same,GI50,HL-60,> 100 µM (inactive)
same,GI50,HOP-62,> 100 µM (inactive)
same,GI50,HOP-92,> 100 µM (inactive)
same,GI50,HT-29,> 100 µM (inactive)
same,GI50,IGROV-1,> 100 µM (inactive)
same,GI50,K562,> 100 µM (inactive)
same,GI50,KM-20L2,> 100 µM (inactive)
same,GI50,KM12,> 100 µM (inactive)
same,GI50,LOX IMVI,> 100 µM (inactive)
same,GI50,LXFL 529,> 100 µM (inactive)
same,GI50,M14,> 100 µM (inactive)
same,GI50,M19-MEL,> 100 µM (inactive)
same,GI50,MOLT-4,> 100 µM (inactive)
same,GI50,Malme-3M,> 100 µM (inactive)
same,GI50,NCI-H226,> 100 µM (inactive)
same,GI50,NCI-H23,> 100 µM (inactive)
same,GI50,NCI-H460,> 100 µM (inactive)
same,GI50,NCI-H522,> 100 µM (inactive)
same,GI50,OVCAR-3,> 100 µM (inactive)
same,GI50,OVCAR-4,> 100 µM (inactive)
same,GI50,OVCAR-5,> 100 µM (inactive)
same,GI50,OVCAR-8,> 100 µM (inactive)
same,GI50,RPMI-8226,> 100 µM (inactive)
same,GI50,RXF 393,> 100 µM (inactive)
same,GI50,SF-268,> 100 µM (inactive)
same,GI50,SF-295,> 100 µM (inactive)
same,GI50,SK-MEL-28,> 100 µM (inactive)
same,GI50,SK-MEL-2,> 100 µM (inactive)
same,GI50,SK-OV-3,> 100 µM (inactive)
same,GI50,SN12C,> 100 µM (inactive)
same,GI50,SNB-75,> 100 µM (inactive)
same,GI50,SW-620,> 100 µM (inactive)
same,GI50,TK-10,> 100 µM (inactive)
same,GI50,U-251,> 100 µM (inactive)
same,GI50,UACC-257,> 100 µM (inactive)
same,GI50,UACC-62,> 100 µM (inactive)
same,GI50,UO-31,> 100 µM (inactive)
CC(C)=CC(Cc1ccccc1)S(=O)(=O)c1nc2ccccc2s1 (configuration not stated),GI50,786-0,14.6 µM (inactive)
same,GI50,A498,19.9 µM (inactive)
same,GI50,A549,23.4 µM (inactive)
same,GI50,ACHN,18.8 µM (inactive)
same,GI50,BT-549,14.6 µM (inactive)
same,GI50,CAKI-1,4.05 µM (inactive)
same,GI50,CCRF-CEM,2.37 µM (inactive)
same,GI50,COLO 205,17 µM (inactive)
same,GI50,DU-145,17.7 µM (inactive)
same,GI50,EKVX,19.6 µM (inactive)
same,GI50,HCC 2998,19.2 µM (inactive)
same,GI50,HCT-116,14 µM (inactive)
same,GI50,HCT-15,17.7 µM
same,GI50,HL-60,2.84 µM (inactive)
same,GI50,HOP-62,28.8 µM (inactive)
same,GI50,HOP-92,16.6 µM (inactive)
same,GI50,HT-29,19.3 µM (inactive)
same,GI50,Hs-578T,29.6 µM (inactive)
same,GI50,IGROV-1,19.7 µM (inactive)
same,GI50,K562,12.6 µM (inactive)
same,GI50,KM12,18.7 µM (inactive)
same,GI50,LOX IMVI,2.69 µM (inactive)
same,GI50,M14,12.5 µM (inactive)
same,GI50,MCF7,14.7 µM (inactive)
same,GI50,MDA-MB-231,19.8 µM (inactive)
same,GI50,MDA-MB-435,11 µM (inactive)
same,GI50,MDA-N,8.13 µM (inactive)
same,GI50,MOLT-4,2.98 µM (inactive)
same,GI50,Malme-3M,14.5 µM (inactive)
same,GI50,NCI-H226,13.3 µM (inactive)
same,GI50,NCI-H23,13.5 µM (inactive)
same,GI50,NCI-H460,21.3 µM (inactive)
same,GI50,NCI-H522,11.3 µM (inactive)
same,GI50,NCI/ADR-RES,19.7 µM (inactive)
same,GI50,OVCAR-3,15.3 µM (inactive)
same,GI50,OVCAR-4,15.9 µM (inactive)
same,GI50,OVCAR-5,19.2 µM (inactive)
same,GI50,OVCAR-8,15.4 µM (inactive)
same,GI50,PC-3,16.7 µM (inactive)
same,GI50,RPMI-8226,10.5 µM (inactive)
same,GI50,RXF 393,19.7 µM (inactive)
same,GI50,SF-268,15.6 µM (inactive)
same,GI50,SF-295,26.6 µM (inactive)
same,GI50,SF-539,16.2 µM (inactive)
same,GI50,SK-MEL-28,16.1 µM (inactive)
same,GI50,SK-MEL-2,13.1 µM (inactive)
same,GI50,SK-MEL-5,13.6 µM (inactive)
same,GI50,SK-OV-3,22.4 µM (inactive)
same,GI50,SN12C,12 µM (inactive)
same,GI50,SNB-19,17.4 µM (inactive)
same,GI50,SNB-75,16.6 µM (inactive)
same,GI50,SR,1.98 µM (inactive)
same,GI50,SW-620,18.7 µM (inactive)
same,GI50,T47D,23.6 µM (inactive)
same,GI50,TK-10,20 µM (inactive)
same,GI50,U-251,15.9 µM (inactive)
same,GI50,UACC-257,21 µM (inactive)
same,GI50,UACC-62,17.2 µM (inactive)
same,GI50,UO-31,13.8 µM (inactive)
